Where two headings read alike, the source gives them in different places. Non-standard residues stand in square brackets, D forms with d. Residues, ends and D or L forms follow the SMILES beside them. No end group written: not given here. Ahx = NCCCCCC(=O)O
Assays:
[1] = system: C. albicans 256 HUSI-PUJ; assay type: cell-based, Candida albicans; details: for MFC: 24 h; for MIC: 48 h
Experimental: (§1) Antifungal susceptibility testing was carried out using the broth microdilution (BMD) method, following the CLSI M27-A3 guidelines with slight modifications. Briefly, cells (0.5–2.5 × 10^3 CFU/mL) were incubated with peptides (200, 100, 50, 25, 12.5, and 6.25 µg/mL) at 37 °C for 48 h. MICs were visualized and densitometry (595 nm, microplate reader, Bio-Rad, ᵢMark^TM) was used to determine the lowest concentration of peptide that caused a significant decrease (MIC/2 or ≥50%) compared with the growth control (cells incubated in absence of peptide) (n = 3). In order to verify that the peptides were able to kill the yeast cells, the plates were also evaluated for minimum fungicidal concentration (MFC). Briefly, aliquots from each well from susceptibility testing assays were transferred to plates containing Sabouraud dextrose agar (SDA), which were then incubated at 37 °C for 24 h. The highest dilution with no growth on the agar plate was considered to be the MFC.

[2] = system: C. albicans ATCC SC5314; assay type: cell-based, Candida albicans
Experimental: as §1

[3] = system: human red blood cells; set-up: method as in PMID 33369144; details: cited from earlier work
[4] = FLC-resistant clinical isolate, aliquots plated on SDA, 37 °C, no growth
[5] = FLC-resistant clinical isolate, broth microdilution CLSI M27-A3, 37 °C, ≥50% decrease vs growth control, n = 3
[6] = FLC-sensitive reference strain, aliquots plated on SDA, 37 °C, 24 h, no growth
[7] = FLC-sensitive reference strain, broth microdilution CLSI M27-A3, 37 °C, 48 h, ≥50% decrease vs growth control, n = 3

| Compound | MFC ([1]; 256 HUSI-PUJ) [µM] | MIC ([1]; 256 HUSI-PUJ) [µM] | MFC ([2]; ATCC SC5314, 24 h) [µM] | MIC ([2]; ATCC SC5314, 48 h) [µM] | MFC [1, 4] [µg/mL] | MIC [1, 5] [µg/mL] | MFC [2, 6] [µg/mL] | MIC [2, 7] [µg/mL] | Hemolytic effect [3] |
| --- | --- | --- | --- | --- | --- | --- | --- | --- | --- |
| CC(C)C[C@H](NC(=O)[C@H](CC(C)C)NC(=O)[C@H](CCCCN)NC(=O)[C@H](CCCCN)NC(=O)[C@H](CC(C)C)NC(=O)[C@H](CC(C)C)NC(=O)[C@H](CCCCN)NC(=O)CCCCCNC(=O)[C@H](CCCCN)NC(=O)[C@H](Cc1c[nH]c2ccccc12)NC(=O)[C@H](CCC(N)=O)NC(=O)[C@H](Cc1c[nH]c2ccccc12)NC(=O)[C@H](CCCCN)NC(=O)[C@@H](N)CCCCN)C(=O)N[C@@H](CCCCN)C(N)=O [C7] (H-KKWQWK[Ahx]KLLKKLLK-NH2) | > 101 | 101 | > 101 | 101 | – | – | – | – | – |
| CC(C)C[C@H](NC(=O)[C@H](CC(C)C)NC(=O)[C@H](CCCNC(=N)N)NC(=O)CCCCCNC(=O)[C@H](CCCNC(=N)N)NC(=O)[C@H](Cc1c[nH]c2ccccc12)NC(=O)[C@H](CCC(N)=O)NC(=O)[C@H](Cc1c[nH]c2ccccc12)NC(=O)[C@H](CCCNC(=N)N)NC(=O)[C@@H](N)CCCNC(=N)N)C(=O)N[C@@H](CCCNC(=N)N)C(N)=O [C2] (H-RRWQWR[Ahx]RLLR-NH2; N-terminus assumed) | > 122 | 122 | > 122 | 122 | > 200 | 200 | > 200 | 200 | – |
| RLLRRRWQWR-NH2 [C3] | 131 | 66 | 131 | 66 | – | – | – | – | 2–4% |
| CC(C)C[C@H](NC(=O)[C@H](CC(C)C)NC(=O)[C@@H](N)CCCNC(=N)N)C(=O)N[C@@H](CCCNC(=N)N)C(=O)NCCCCCC(=O)N[C@@H](CCCNC(=N)N)C(=O)N[C@@H](CCCNC(=N)N)C(=O)N[C@@H](Cc1c[nH]c2ccccc12)C(=O)N[C@@H](CCC(N)=O)C(=O)N[C@@H](Cc1c[nH]c2ccccc12)C(=O)N[C@@H](CCCNC(=N)N)C(N)=O [C4] (H-RLLR[Ahx]RRWQWR-NH2; N-terminus assumed) | > 122 | 122 | > 122 | > 122 | > 200 | 200 | > 200 | > 200 | – |

— paper PMC9686985, “Chimeric Peptides Derived from Bovine Lactoferricin and Buforin II: Antifungal Activity against Reference Strains and Clinical Isolates of Candida spp” (Antibiotics, 2022)
